Reference: patent US8088819B2, “Derivatives of substituted 3-phenyl-1-(phenylthienyl)propan-1-ones and of 3-phenyl-1-(phenylfuranyl) propan-1-ones, preparation and use” (priority 2006, dated 2012)

Experiments:
hPPARalpha [1] = molecular target: T1, hPPARalpha (Homo sapiens, UniProt Q07869); assay: PPAR activation: Gal4-hPPARα chimera luciferase transactivation in COS-7 cells, Method 1; format: cell-based; conditions: COS-7, 24 h; for Emax: maximum percentage response relative to the reference phenofibric acid, read-out: hPPARalpha % max
T1 construct: expressed in transfected cells; host or cells: COS-7 (monkey kidney fibroblasts)
T1 sequence (Q07869 239-466 limits assumed): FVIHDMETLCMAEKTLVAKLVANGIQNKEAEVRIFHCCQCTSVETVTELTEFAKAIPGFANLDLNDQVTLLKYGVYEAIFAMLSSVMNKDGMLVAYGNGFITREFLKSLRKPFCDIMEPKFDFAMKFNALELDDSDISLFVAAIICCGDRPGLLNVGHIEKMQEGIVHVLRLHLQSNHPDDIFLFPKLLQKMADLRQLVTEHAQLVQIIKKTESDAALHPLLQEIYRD
Procedure: (§1) The activation of the PPARs was evaluated in vitro on a line of monkey kidney fibroblasts (COS-7) by measuring the transcriptional activity of chimeras constituted of the DNA binding domain of the Gal4 transcription factor of yeast and the ligand binding domain of the various PPARs. The compounds were tested at doses between 10^−5 and […] on the chimeras Gal4-PPARα, γ or δ, and the corresponding EC50 values were determined.
(§2) The COS-7 cells were obtained from the ATCC and were cultivated in DMEM medium supplemented with 10% (v/v) of fetal calf serum, 100 U/ml of penicillin (Gibco, Paisley, UK) and 2 mM of L-glutamine (Gibco, Paisley, UK). The cells were incubated at 37° C. in a humid atmosphere containing 5% CO2.
(§3) The plasmids Gal4(RE)_TkpGL3, pGal4-hPPARα, pGal4-hPPARγ, pGal4-hPPARδ and pGal4-φ are described in the literature (Raspe E et al., 1999). The constructs pGal4-hPPARα, pGal4-hPPARγ and pGal4-hPPARδ were obtained by cloning DNA fragments amplified by PCR corresponding to the DEF domains of the human nuclear receptors PPARα, PPARγ and PPARδ in the pGal4-φ vector.
(§4) The COS-7 cells in suspension were transfected with 150 ng of DNA per well, with a pGal4-PPAR/Gal4(RE)_TkpGL3 ratio of 1/10, in the presence of 10% fetal calf serum. The cells were seeded in 96-well plates (4×10^4 cells/well) and then incubated at 37° C. for 24 hours. Activation with the test compounds is carried out for 24 h at 37° C. in serum-free medium. At the end of the experiment, the cells were lysed and the luciferase activity was determined using the Steady-Lite™ HTS (Perkin Elmer) following the supplier's recommendations.

hPPARgamma [2] = molecular target: T2, hPPARgamma (Homo sapiens, UniProt P37231); assay: PPAR activation: Gal4-hPPARγ chimera luciferase transactivation in COS-7 cells, Method 1; format: cell-based; conditions: COS-7, 24 h; for Emax: maximum percentage response relative to the reference rosiglitazone, read-out: hPPARgamma % max
T2 construct: expressed in transfected cells; host or cells: COS-7 (monkey kidney fibroblasts)
T2 sequence (P37231 238-503 limits assumed): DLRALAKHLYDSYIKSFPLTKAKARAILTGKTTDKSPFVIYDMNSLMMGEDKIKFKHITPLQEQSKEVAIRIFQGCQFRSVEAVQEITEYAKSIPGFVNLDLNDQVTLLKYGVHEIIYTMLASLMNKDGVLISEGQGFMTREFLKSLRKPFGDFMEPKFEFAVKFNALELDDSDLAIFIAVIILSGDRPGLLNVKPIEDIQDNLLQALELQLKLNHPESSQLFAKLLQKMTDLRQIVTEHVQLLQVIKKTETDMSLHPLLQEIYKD
Procedure: as §1, §2, §3, §4

hPPARdelta [3] = molecular target: T3, hPPARdelta (Homo sapiens, UniProt Q03181); assay: PPAR activation: Gal4-hPPARδ chimera luciferase transactivation in COS-7 cells, Method 1; format: cell-based; conditions: COS-7, 24 h; for Emax: maximum percentage response relative to the reference GW501516, read-out: hPPARdelta % max
T3 construct: expressed in transfected cells; host or cells: COS-7 (monkey kidney fibroblasts)
T3 sequence (Q03181 211-439 limits assumed): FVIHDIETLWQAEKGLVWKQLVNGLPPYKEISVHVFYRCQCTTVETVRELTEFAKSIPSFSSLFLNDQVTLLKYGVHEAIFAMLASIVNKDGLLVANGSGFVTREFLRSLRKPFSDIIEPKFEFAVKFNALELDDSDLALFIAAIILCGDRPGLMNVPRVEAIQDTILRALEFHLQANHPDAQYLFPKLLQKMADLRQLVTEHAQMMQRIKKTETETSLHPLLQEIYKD
Procedure: as §1, §2, §3, §4

hPPARalpha [4] = molecular target: T1, hPPARalpha; assay: PPAR activation: Gal4-hPPARα chimera luciferase transactivation in COS-7 cells, Method 2; format: cell-based; conditions: COS-7, 24 h; for EC50: 1% Ultroser; for Emax: maximum percentage response relative to the reference phenofibric acid, read-out: hPPARalpha % max
Procedure: as §1
(§5) The principle, the cells and the plasmids used for example 5 were also employed in this example. Only the application of the transfection stage is slightly different. The details are presented below.
(§6) The adherent COS-7 cells are transfected with 40 μg of DNA per 225 cm^2 dish, with a pGal4-PPAR/Gal4(RE)_TkpGL3 ratio of 1/10, in the presence of 10% fetal calf serum. The cells are then detached and seeded in the absence of serum in 384-well plates (2×10^4 cells/well) and incubated for 4 hours at 37° C. The compounds are then diluted in a 96-well plate and transferred to the 384-well plate. Activation with the test compounds is carried out for an additional 24 h at 37° C. in the presence of 1% of Ultroser™ lipid-free synthetic serum (Biosepra). These last 2 stages are automated using a Genesis Freedom 200™ station (Tecan). At the end of the experiment, the cells are lysed and the luciferase activity is determined using the Steady-Lite™ HTS (Perkin Elmer) following the supplier's recommendations.

hPPARgamma [5] = molecular target: T2, hPPARgamma; assay: PPAR activation: Gal4-hPPARγ chimera luciferase transactivation in COS-7 cells, Method 2; format: cell-based; conditions: COS-7, 24 h, Method 2; for Emax: maximum percentage response relative to the reference rosiglitazone, read-out: hPPARgamma % max; for EC50: 1% Ultroser, read-out: hPPARgamma EC50
Procedure: The activation of the PPARs was evaluated in vitro on a line of monkey kidney fibroblasts (COS-7) by measuring the transcriptional activity of chimeras constituted of the DNA binding domain of the Gal4 transcription factor of yeast and the ligand binding domain of the various PPARs.
Only the application of the transfection stage is slightly different. The details are presented below.
as §6

hPPARdelta [6] = molecular target: T3, hPPARdelta; assay: PPAR activation: Gal4-hPPARδ chimera luciferase transactivation in COS-7 cells, Method 2; format: cell-based; conditions: COS-7, 24 h; for EC50: 1% Ultroser; for Emax: maximum percentage response relative to the reference GW501516, read-out: hPPARdelta % max
Procedure: as §1, §5, §6

Row | EC50 (hPPARalpha [1]) [nM] | Emax (hPPARalpha [1]) [%] | EC50 (hPPARgamma [2]) [nM] | Emax (hPPARgamma [2]) [%] | EC50 (hPPARdelta [3]) [nM] | Emax (hPPARdelta [3]) [%] | melting point [°C] | EC50 (hPPARalpha [4]) [nM] | Emax (hPPARalpha [4]) [%] | Emax (hPPARgamma [5]) [%] | EC50 (hPPARgamma [5]) [nM] | EC50 (hPPARdelta [6]) [nM] | Emax (hPPARdelta [6]) [%] | Compound
1 | 43 | 46 | 660 | 24 | 45 | 93 | 135 to 136 | – | – | – | – | – | – | CC(C)(Oc1ccc(CCC(=NO)c2ccc(-c3ccc(C(F)(F)F)cc3)s2)c(Cl)c1Cl)C(=O)O (mixture of isomers) [Compound 49, 2-(2,3-dichloro-4-(3-(hydroxyimino)-3-(5-(4-(trifluoromethyl)-phenyl)thien-2-yl)propyl)phenoxy)-2-methylpropanoic acid]
2 | – | – | – | – | – | – | – | 7860 | 41 | 55 | 4110 | 530 | 92 | CC(C)(Oc1ccc(CCC(OCc2ccc(I)cc2)c2ccc(-c3ccc(C(F)(F)F)cc3)s2)c(Cl)c1Cl)C(=O)O (centres unmarked) [Compound 6, 2-(4-(3-(4-iodobenzyloxy)-3-(5-(4-(trifluoromethyl)phenyl)thien-2-yl)propyl)-2,3-dichlorophenoxy)-2-methylpropanoic acid]
3 | 6 | 54 | 280 | 41 | 19 | 84 | 169 to 171 | – | – | – | – | – | – | CCC(Oc1ccc(CCC(=O)c2ccc(-c3ccc(C(F)(F)F)cc3)s2)c(Cl)c1Cl)C(=O)O (centres unmarked) [Compound 9, 2-(2,3-dichloro-4-(3-oxo-3-(5-(4-(trifluoromethyl)phenyl)thien-2-yl)propyl)phenoxy)butanoic acid]
4 | 977 | 20 | 490 | 58 | – | 1 | 167 to 169 | – | – | – | – | – | – | CC(C)(CCCOc1ccc(CCC(=O)c2ccc(-c3ccc(C(F)(F)F)cc3)s2)c(Cl)c1Cl)C(=O)O [Compound 13, 5-(2,3-dichloro-4-(3-oxo-3-(5-(4-(trifluoromethyl)phenyl)thien-2-yl)propyl)phenoxy)-2,2-dimethylpentanoic acid]
5 | 163 | 46 | 5660 | 32 | 253 | 88 | 217 to 219 | – | – | – | – | – | – | O=C(O)COc1ccc(CCC(=O)c2ccc(-c3ccc(C(F)(F)F)cc3)s2)c(Cl)c1Cl [Compound 15, 2-(2,3-dichloro-4-(3-oxo-3-(5-(4-(trifluoromethyl)phenyl)thien-2-yl)propyl)phenoxy)acetic acid]
6 | 228 | 5 | 190 | 27 | – | 0 | 189 to 191 | – | – | – | – | – | – | O=C(CCc1ccc(OC(C(=O)O)c2ccccc2)c(Cl)c1Cl)c1ccc(-c2ccc(C(F)(F)F)cc2)s1 (centres unmarked) [Compound 17, 2-(2,3-dichloro-4-(3-oxo-3-(5-(4-(trifluoromethyl)phenyl)thien-2-yl)propyl)phenoxy)-2-phenylacetic acid]
7 | 1 | 47 | 180 | 27 | 15 | 85 | 136 to 137 | – | – | – | – | – | – | CC(C)(Oc1ccc(CCC(=O)c2ccc(-c3ccc(C(F)(F)F)cc3)s2)cc1Cl)C(=O)O [Compound 19, 2-(2-chloro-4-(3-oxo-3-(5-(4-(trifluoromethyl)phenyl)thien-2-yl)-propyl)phenoxy)-2-methylpropanoic acid]
8 | 17 | 50 | 80 | 63 | 8 | 97 | 104 to 106 | – | – | – | – | – | – | CC(C)(Oc1ccc(CCC(=O)c2ccc(-c3ccc(C(F)(F)F)cc3)s2)c(Cl)c1)C(=O)O [Compound 21, 2-(3-chloro-4-(3-oxo-3-(5-(4-(trifluoromethyl)phenyl)thien-2-yl)-propyl)phenoxy)-2-methylpropanoic acid]
9 | 1310 | 47 | 2820 | 30 | 589 | 77 | – | – | – | – | – | – | – | O=C(O)COc1ccc(CCC(OCc2ccccc2)c2ccc(-c3ccc(C(F)(F)F)cc3)s2)cc1F (centres unmarked) [Compound 27, 2-(4-(3-(benzyloxy)-3-(5-(4-(trifluoromethyl)phenyl)thien-2-yl)-propyl)-2-fluorophenoxy)acetic acid]
10 | – | – | – | – | – | – | – | 50 | 51 | 45 | 3930 | 1530 | 80 | CCC(Oc1ccc(CCC(O)c2ccc(-c3ccc(C(F)(F)F)cc3)s2)cc1F)C(=O)O (centres unmarked) [Compound 30, 2-(2-fluoro-4-(3-hydroxy-3-(5-(4-(trifluoromethyl)phenyl)thien-2-yl)propyl)phenoxy)butanoic acid]
11 | – | – | – | – | – | – | – | 610 | 49 | 36 | 1490 | 10 | 76 | CCOC(CCc1ccc(OC(C)(C)C(=O)O)c(Cl)c1Cl)c1ccc(-c2ccc(C(F)(F)F)cc2)s1 (centres unmarked) [Compound 41, 2-(2,3-dichloro-4-(3-ethoxy-3-(5-(4-(trifluoromethyl)phenyl)thien-2-yl)propyl)phenoxy)-2-methylpropanoic acid]
12 | – | – | – | – | – | – | – | 2000 | 28 | 47 | 890 | 260 | 82.1 | CC(C)(Oc1ccc(CCC(OCC2CCCCC2)c2ccc(-c3ccc(C(F)(F)F)cc3)s2)c(Cl)c1Cl)C(=O)O (centres unmarked) [Compound 42, 2-(2,3-dichloro-4-(3-(cyclohexylmethoxy)-3-(5-(4-(trifluoromethyl)phenyl)thien-2-yl)propyl)phenoxy)-2-methylpropanoic acid]
13 | 227 | 47 | 970 | 56 | 216 | 67 | – | – | – | – | – | – | – | CCC(Oc1ccc(CCC(OCc2ccccc2)c2ccc(-c3ccc(C(F)(F)F)cc3)s2)cc1F)C(=O)O (centres unmarked) [Compound 70, 2-(4-(3-(benzyloxy)-3-(5-(4-(trifluoromethyl)phenyl)thien-2-yl)propyl)-2-fluorophenoxy)butanoic acid]
